# US6613747B2, “6-O-carbamoyl ketolide antibacterials” (Ortho-McNeil Pharmaceutical, Inc., priority 2000, dated 2003)
# Like-named read-outs stand apart in the source and are kept apart here.
# Columns and labels:
# Assay in all cases: MIC, microdilution broth method (NCCLS)
# Assay type in all cases: cell-based
# E. faecalis ATCC29212 = details: C: E. faecalis ATCC29212, 35° C., 16-20 hours
# Description: (§1) Minimal inhibitory concentration (MIC) has been an indicator of in vitro antibacterial activity widely used in the art. The in vitro antimicrobial activity of the compounds was determined by the microdilution broth method following the test method from the National Committee for Clinical Laboratory Standards (NCCLS). This method is described in the NCCLS Document M7-A4, Vol. 17, No. 2, “Methods for Dilution Antimicrobial Susceptibility Test for Bacteria that Grow Aerobically—Fourth Edition”, which is incorporated herein by reference.
# (§2) In this method two-fold serial dilutions of drug in cation adjusted Mueller-Hinton broth are added to wells in microdilution trays. The test organisms are prepared by adjusting the turbidity of actively growing broth cultures so that the final concentration of test organism after it is added to the wells is approximately 5×10^4 CFU/well.
# (§3) Following inoculation of the microdilution trays, the trays are incubated at 35° C. for 16-20 hours and then read. […] The amount of growth in the wells containing the test compound is compared with the amount of growth in the growth-control wells (no test compound) used in each tray. As set forth in Table 1, compounds of the present invention were tested against a variety of Gram positive and Gram negative pathogenic bacteria resulting in a range of activities depending on the organism tested.
# E. coli OC2605 = details: A: E. coli OC2605, 35° C., 16-20 hours
# Description: as §1, §2, §3
# S. pneumoniae ATCC49619 = details: D: S. pneumoniae ATCC49619, 35° C., 16-20 hours
# Description: as §1, §2, §3
# S. aureus ATCC29213 = details: B: S. aureus ATCC29213, 35° C., 16-20 hours
# Description: as §1, §2, §3
# H. influenzae ATCC49247 = details: E: H. influenzae ATCC49247, 35° C., 16-20 hours
# Description: as §1, §2, §3
MIC (E. faecalis ATCC29212),MIC (E. coli OC2605),MIC (S. pneumoniae ATCC49619),MIC (S. aureus ATCC29213),MIC (H. influenzae ATCC49247),"MIC (E. faecalis ATCC29212; Enterococcus faecalis, read-out: MIC)","MIC (E. coli OC2605; Escherichia coli, read-out: MIC)","MIC (S. pneumoniae ATCC49619; Streptococcus pneumoniae, read-out: MIC)","MIC (S. aureus ATCC29213; Staphylococcus aureus, read-out: MIC)","MIC (H. influenzae ATCC49247; Haemophilus influenzae, read-out: MIC)",SMILES
0.12 µg/mL,>16 µg/mL,0.03 µg/mL,0.5 µg/mL,2 µg/mL,,,,,,CC[C@H]1OC(=O)[C@H](C)C(=O)[C@H](C)[C@@H](O[C@@H]2O[C@H](C)C[C@H](N(C)C)[C@H]2O)[C@](C)(OC(=O)NC/C=C/c2ccc(-c3ccncc3)cc2)C[C@@H](C)C(=O)[C@H](C)[C@H]2NC(=O)O[C@@]21C [Compound 26]
0.06 µg/mL,16 µg/mL,0.03 µg/mL,0.25 µg/mL,4 µg/mL,,,,,,CC[C@H]1OC(=O)[C@H](C)C(=O)[C@H](C)[C@@H](O[C@@H]2O[C@H](C)C[C@H](N(C)C)[C@H]2O)[C@](C)(OC(=O)NCc2ccc(-c3cncnc3)cc2)C[C@@H](C)C(=O)[C@H](C)[C@H]2NC(=O)O[C@@]21C [Compound 28]
0.06 µg/mL,16 µg/mL,0.03 µg/mL,0.5 µg/mL,2 µg/mL,,,,,,CC[C@H]1OC(=O)[C@H](C)C(=O)[C@H](C)[C@@H](O[C@@H]2O[C@H](C)C[C@H](N(C)C)[C@H]2O)[C@](C)(OC(=O)NCC#Cc2cnc3ccccc3c2)C[C@@H](C)C(=O)[C@H](C)[C@H]2NC(=O)O[C@@]21C [Compound 29]
0.12 µg/mL,16 µg/mL,0.03 µg/mL,0.5 µg/mL,2 µg/mL,,,,,,CC[C@H]1OC(=O)[C@H](C)C(=O)[C@H](C)[C@@H](O[C@@H]2O[C@H](C)C[C@H](N(C)C)[C@H]2O)[C@](C)(OC(=O)NC/C=C/c2ccncc2)C[C@@H](C)C(=O)[C@H](C)[C@H]2NC(=O)O[C@@]21C [Compound 30]
0.06 µg/mL,16 µg/mL,0.03 µg/mL,0.25 µg/mL,2 µg/mL,,,,,,CC[C@H]1OC(=O)[C@H](C)C(=O)[C@H](C)[C@@H](O[C@@H]2O[C@H](C)C[C@H](N(C)C)[C@H]2O)[C@](C)(OC(=O)NCc2ccc(-c3ncccn3)cc2)C[C@@H](C)C(=O)[C@H](C)[C@H]2NC(=O)O[C@@]21C [Compound 31]
0.12 µg/mL,>16 µg/mL,0.06 µg/mL,1 µg/mL,1 µg/mL,,,,,,CC[C@H]1OC(=O)[C@H](C)C(=O)[C@H](C)[C@@H](O[C@@H]2O[C@H](C)C[C@H](N(C)C)[C@H]2O)[C@](C)(OC(=O)NCc2ccc(-c3cc[nH]n3)cc2)C[C@@H](C)C(=O)[C@H](C)[C@H]2NC(=O)O[C@@]21C [Compound 39]
0.12 µg/mL,16 µg/mL,0.03 µg/mL,0.25 µg/mL,1 µg/mL,,,,,,CC[C@H]1OC(=O)[C@H](C)C(=O)[C@H](C)[C@@H](O[C@@H]2O[C@H](C)C[C@H](N(C)C)[C@H]2O)[C@](C)(OC(=O)NC/C=C/c2ccc3nccnc3c2)C[C@@H](C)C(=O)[C@H](C)[C@H]2NC(=O)O[C@@]21C [Compound 41]
0.12 µg/mL,16 µg/mL,0.12 µg/mL,0.5 µg/mL,1 µg/mL,,,,,,CC[C@H]1OC(=O)[C@H](C)C(=O)[C@H](C)[C@@H](O[C@@H]2O[C@H](C)C[C@H](N(C)C)[C@H]2O)[C@](C)(OC(=O)NCc2ccc(-c3ccc([N+](=O)[O-])cn3)cc2)C[C@@H](C)C(=O)[C@H](C)[C@H]2NC(=O)O[C@@]21C [Compound 42]
,,,,,0.12 µg/mL,> 16 µg/mL,0.03 µg/mL,0.25 µg/mL,2 µg/mL,"CC[C@H]1OC(=O)[C@H](C)C(=O)[C@H](C)[C@@H](O[C@@H]2O[C@H](C)C[C@H](N(C)C)[C@H]2O)[C@](C)(OC(=O)NC/C=C/c2ccc(-c3ccn(C)n3)cc2)C[C@@H](C)C(=O)[C@H](C)[C@H]2NC(=O)O[C@@]21C [Compound 43, Carbamic acid, [(2E)-3-[4-(1-methyl-1H-pyrazol-3-yl)phenyl]-2-propenyl]-, (3aS,4R,7R,9R,10R,11R,13R,15R,15aR)-4-ethyltetradecahydro-3a,7,9,11,13,15-hexamethyl-2,6,8,14-tetraoxo-10-[[3,4,6-trideoxy-3-(dimethylamino)-β-D-xylo-hexopyranosyl]oxy]-2H-oxacyclotetradecino[4,3-d]oxazol-11-yl ester]"
0.12 µg/mL,>16 µg/mL,0.12 µg/mL,0.25 µg/mL,2 µg/mL,,,,,,CC[C@H]1OC(=O)[C@H](C)C(=O)[C@H](C)[C@@H](O[C@@H]2O[C@H](C)C[C@H](N(C)C)[C@H]2O)[C@](C)(OC(=O)NC/C=C/c2ccc(-c3ccnn3C)cc2)C[C@@H](C)C(=O)[C@H](C)[C@H]2NC(=O)O[C@@]21C [Compound 44]
0.5 µg/mL,>16 µg/mL,0.25 µg/mL,1 µg/mL,4 µg/mL,,,,,,CC[C@H]1OC(=O)[C@H](C)C(=O)[C@H](C)[C@@H](O[C@@H]2O[C@H](C)C[C@H](N(C)C)[C@H]2O)[C@](C)(OC(=O)NC/C=C/c2ccc(-c3ccc([N+](=O)[O-])cn3)cc2)C[C@@H](C)C(=O)[C@H](C)[C@H]2NC(=O)O[C@@]21C [Compound 45]
0.06 µg/mL,16 µg/mL,0.06 µg/mL,0.25 µg/mL,2 µg/mL,,,,,,CC[C@H]1OC(=O)[C@H](C)C(=O)[C@H](C)[C@@H](O[C@@H]2O[C@H](C)C[C@H](N(C)C)[C@H]2O)[C@](C)(OC(=O)NC/C=C/c2ccc(-n3cccn3)nc2)C[C@@H](C)C(=O)[C@H](C)[C@H]2NC(=O)O[C@@]21C [Compound 49]
0.06 µg/mL,16 µg/mL,≦0.015 μg/mL,0.25 µg/mL,2 µg/mL,,,,,,CC[C@H]1OC(=O)[C@H](C)C(=O)[C@H](C)[C@@H](O[C@@H]2O[C@H](C)C[C@H](N(C)C)[C@H]2O)[C@](C)(OC(=O)NC/C=C/C=C/c2cccc(-n3cncn3)n2)C[C@@H](C)C(=O)[C@H](C)[C@H]2NC(=O)O[C@@]21C [Compound 50]
0.12 µg/mL,>16 µg/mL,0.06 µg/mL,0.5 µg/mL,8 µg/mL,,,,,,CC[C@H]1OC(=O)[C@H](C)C(=O)[C@H](C)[C@@H](O[C@@H]2O[C@H](C)C[C@H](N(C)C)[C@H]2O)[C@](C)(OC(=O)NC/C=C/c2cccc(-n3cncn3)n2)C[C@@H](C)C(=O)[C@H](C)[C@H]2NC(=O)O[C@@]21C [Compound 51]
0.12 µg/mL,8 µg/mL,0.03 µg/mL,0.25 µg/mL,2 µg/mL,,,,,,CC[C@H]1OC(=O)[C@H](C)C(=O)[C@H](C)[C@@H](O[C@@H]2O[C@H](C)C[C@H](N(C)C)[C@H]2O)[C@](C)(OC(=O)NC/C=C/c2cncc3ccccc23)C[C@@H](C)C(=O)[C@H](C)[C@H]2NC(=O)O[C@@]21C [Compound 52]

SMILES,MIC (E. faecalis ATCC29212),MIC (E. coli OC2605),MIC (S. pneumoniae ATCC49619),MIC (S. aureus ATCC29213),MIC (H. influenzae ATCC49247),"MIC (E. faecalis ATCC29212; Enterococcus faecalis, read-out: MIC)","MIC (E. coli OC2605; Escherichia coli, read-out: MIC)","MIC (S. pneumoniae ATCC49619; Streptococcus pneumoniae, read-out: MIC)","MIC (S. aureus ATCC29213; Staphylococcus aureus, read-out: MIC)","MIC (H. influenzae ATCC49247; Haemophilus influenzae, read-out: MIC)"
CC[C@H]1OC(=O)[C@H](C)C(=O)[C@H](C)[C@@H](O[C@@H]2O[C@H](C)C[C@H](N(C)C)[C@H]2O)[C@](C)(OC(=O)NC/C=C/c2ccc(-c3cncnc3)cc2)C[C@@H](C)C(=O)[C@H](C)[C@H]2NC(=O)O[C@@]21C [Compound 27],0.12 µg/mL,16 µg/mL,0.06 µg/mL,0.25 µg/mL,4 µg/mL,,,,,
